Read-outs that look alike come from different tables or passages of the source. Numbered stars: 1 amine (or outer) side, 2 acyl side, 3 side chain; on linkers, the order of the positions; unused ones are H or OH. Bridge positions count the residues as written; N and C are the ends. Square brackets hold non-standard residues; d marks the D form. Peptide text beside a SMILES is read from it. * marks the point of attachment. Orn(4R-OH,5R-OCH2CH2NMe3+) = C[N+](C)(C)CCO[C@@H](N[*:3])[C@H](O)C[C@H](N[*:1])C(=O)[*:2]; pTerphenylCO(4''-OnC5H11) = CCCCCOc1ccc(-c2ccc(-c3ccc(C(=O)*)cc3)cc2)cc1; hTyr(3S-OH,4S-OH) = N[C@H](C(=O)O)[C@H](O)[C@@H](O)c1ccc(O)cc1; Pro(3S-OH,4S-Me) = C[C@H]1CN[C@H](C(=O)O)[C@H]1O; Hyp = O=C(O)[C@@H]1C[C@@H](O)CN1
Key:
[1] = with normal serum albumin, cited from earlier work
From the text: Consistent with the previous population PK model, which had relationships between body weight and all PK parameters ([12]), body size in the form of BSA was predictive of the variability in Vc, Vp1, and Vp2. However, body size was not a significant predictor of the variability in rezafungin CL in this population. One possible explanation for the lack of a body size relationship for CL is the fact that sex is predictive of the IIV in CL but none of the vo ...

[2] = Post hoc rezafungin exposure and PK parameter estimates for patients of the STRIVE trial; type: in vivo, human; details: n = 68, plasma; for AUC0–168 / Cmax / Cmin: after first dose and prior to the second dose; for AUC0–168: from individual post hoc parameters; for Cmax: highest predicted concentration; for Cmin: lowest predicted concentration; for clearance / Vd: human, iv; for clearance: individual post hoc estimates from final model; for Vd: volume of distribution at steady state, individual post hoc estimates, read-out: Vss
Description: (§1) The phase 2 study (NCT02734862, also known as the STRIVE trial) was a multicenter, randomized, double-blind study designed to assess the safety and efficacy of rezafungin, compared to that of caspofungin followed by optional oral fluconazole step-down, in the treatment of patients with candidemia and/or invasive candidiasis. Treatment groups included two dose regimens of rezafungin IV once weekly (400 mg IV or 400 mg IV on week 1 followed by 200 mg on subsequent weeks) or caspofungin IV once daily. Additional doses after day 14 were allowed based on criteria defined in the study protocol. Blood samples for determination of rezafungin plasma concentrations were obtained within 10 min before the end of infusion and either at 4 and 8 h on day 1 (as specified in the original protocol) or from 15 min to 1 h after the end of infusion and 2 to 12 h after the end of infusion on day 1 (as modified by protocol amendment, designed to better inform the population PK model). Additional samples were obtained with random clinical blood draws on day 2 and day 4, as well as prior to the dose on day 8 and day 15 (or day 14 if no day 15 dose was administered).
(§2) All blood samples were assayed for plasma rezafungin concentration using a liquid chromatography coupled to tandem mass spectrometry (LC/MS/MS) method that has been described previously ([11], [12]). In brief, the calibration range for the assay was 10.0 ng/ml to 10,000 ng/ml, and interassay accuracy and precision were excellent (accuracy ranged from 0.3 to 4.3%, and precision ranged from 2.7 to 5.0%). The same assay was used for all four studies.
Patient-specific estimates of rezafungin exposure (AUC from zero to tau [AUC0−τ], maximum concentration of drug [Cmax], and minimum concentration of drug [Cmin]) were derived using individual post hoc PK parameter estimates obtained from the final model. The PK parameters and the mrgsolve package in R ([22]) were then used to simulate predicted plasma rezafungin concentration-time data for each subject for the duration of time between the first and second doses. Cmax and Cmin were defined as the highest and lowest predicted concentrations over that first dosing interval, respectively, while AUC0-τ was calculated via numerical integration of the concentration-time profile. Summary statistics for the rezafungin exposures and key PK parameters (i.e., CL and volume of distribution at steady state [Vss]) were calculated for the patients from the STRIVE trial.

[3] = Population PK model of rezafungin in plasma, pooled phase 1 and phase 2 data; type: in vivo, human
From the text: Data were pooled from three phase 1 studies (NCT02516904, NCT02551549, and CD101.IV.1.06) and one phase 2 study (NCT02734862). The protocols and informed consent were reviewed and approved by an appropriate institutional review board before subject enrollment. The studies were designed and monitored in compliance with the ethical principles of good clinical practice and in accordance with the Declaration of Helsinki.
The first phase 1 study (NCT2516904) was a single ascending dose (SAD) study in which subjects received a single rezafungin dose of 50, 100, 200, or 400 mg or matching placebo administered as a 60-min IV infusion. A total of 32 subjects were enrolled and randomized evenly to each of the four dosing cohorts (6 active and 2 placebo in each cohort). Blood samples for determination of rezafungin plasma concentrations were obtained prior to the dose and at 0.25, 0.5, 1, 1.5, 2, 4, 6, 8, 12, 24, 48, and 120 h after the start of infusion and on days 7, 14 (±1 day), and 21 (±1 day). The second phase 1 study (NCT02551549) was a multiple ascending dose (MAD) study. A total of 24 subjects were enrolled and randomized evenly to one of three cohorts. In cohorts 1 and 2, subjects received 100 or 200 mg of rezafungin (or matching placebo in a 3:1 ratio in each cohort), respectively, as 60-min IV infusions on days 1 and 8. In cohort 3, subjects received 400 mg (or matching placebo in a 3:1 ratio), respectively, as 60-min IV infusions on days 1, 8, and 15. Blood samples were collected predose and at 0.5, 1, 1.5, 2, 4, 6, 8, 12, 24, 48, and 120 h after the start of each infusion and on days 7, 14 (±1 day), 21 (±1 day), and 35 (±1 day, cohort 3 only). The third phase 1 study (CD101.IV.1.06) was designed to assess the impact of single, ascending doses of rezafungin on QTcF interval in healthy subjects. Subjects were randomized to receive either rezafungin (600 or 1,400 mg IV at a rate of 400 mg/h, n = 12 per dose group), moxifloxacin (400 mg IV, n = 24), or placebo. Only data from subjects randomized to rezafungin were included in the population PK analysis data set. Blood samples for determination of rezafungin plasma concentrations were obtained prior to the dose and at 1.5, 2.5, 3.5, 5, 6, 8, 12, 24, 48, 96, and 168 h after the start of the infusion.
as §1
as §2, with “studies. […]” for “studies.”

[4] = STRIVE patients, median (range)
[5] = final population PK model, covariate effect: (BSA/1.83)^power

SMILES: CCCCCOc1ccc(-c2ccc(-c3ccc(C(=O)N[C@H]4C[C@@H](O)[C@@H](OCC[N+](C)(C)C)NC(=O)[C@@H]5[C@@H](O)[C@@H](C)CN5C(=O)[C@H]([C@@H](C)O)NC(=O)[C@H]([C@H](O)[C@@H](O)c5ccc(O)cc5)NC(=O)[C@@H]5C[C@@H](O)CN5C(=O)[C@H]([C@@H](C)O)NC4=O)cc3)cc2)cc1 [rezafungin] ({pTerphenylCO(4''-OnC5H11)}-[Orn(4R-OH,5R-OCH2CH2NMe3+)]T[Hyp][hTyr(3S-OH,4S-OH)]T[Pro(3S-OH,4S-Me)]; lactam 1-C)
- protein binding ([1]; humans): 97.4%
- protein binding ([1]; rats): 99.2%
- AUC0–168 [2, 4]: 673 (372–1,210) mg·h/liter
- Cmax ([2]; STRIVE patients, mean (SD), SD): 16.4 (4.38) mg/liter
- Cmax [2, 4]: 16.4 (7.10–26.0) mg/liter
- Cmin ([2]; STRIVE patients, mean (SD), SD): 2.07 (0.659) mg/liter
- Cmin [2, 4]: 1.90 (1.04–3.83) mg/liter
- clearance ([2]; STRIVE patients, mean (SD), SD): 6.08 mL/min
- clearance [2, 4]: 5.75 mL/min
- Vd ([2]; STRIVE patients, mean (SD), SD): 61 L
- Vd [2, 4]: 52.7 L
- AUC0–168 ([2]; patients with candidemia and/or invasive candidiasis, STRIVE trial, 400 mg IV week 1, mean (SD), SD): 709 (184) mg·h/liter
- Vc, proportional change in infected patients ([3]; final population PK model, covariate effect of infection status on Vc): 0.478
- Vp2, proportional change in infected patients ([3]; final population PK model, covariate effect of infection status on Vp2): 1.69
- Vp1-BSA power [3, 5]: 1.14
- Vp2-BSA power [3, 5]: 2.47
- Vp1-albumin power ([3]; final population PK model, covariate effect: (albumin/4.2)^power): −0.829
- Vc-BSA slope ([3]; final population PK model, covariate effect: Vc + slope x (BSA - 1.83)): 7.54
- CLd1, population mean final estimate ([3]; final population PK model, distributional clearance to peripheral compartment 1): 18.2 L/h
- CLd2, population mean final estimate ([3]; final population PK model, distributional clearance, peripheral compartment 2): 0.541 L/h
- CLd3, population mean final estimate ([3]; final population PK model, distributional clearance, peripheral compartment 3): 0.0743 L/h
- Vp1, population mean final estimate ([3]; final population PK model, volume of distribution for peripheral compartment 1, albumin 4.2, BSA 1.83): 14.6 L
- Vp2, population mean final estimate ([3]; final population PK model, volume of distribution for peripheral compartment 2, BSA 1.83, not infected): 6.69 L
- Vc, population mean final estimate ([3]; final population PK model, volume of distribution for the central compartment, BSA 1.83, not infected): 11.1 L
- Vp3, population mean final estimate ([3]; final population PK model, volume of peripheral compartment 3): 13.6 L
- clearance ([3]; human, final linear four-compartment population PK model, zero-order IV input, pooled healthy volunteers (phase 1) and infected patients (phase 2), 135 subjects, 50 to 1,400 mg IV, plasma LC/MS/MS, NONMEM FOCE-I, albumin 4.2, read-out: CL, population mean final estimate (converted)): 4.23 mL/min

Source: paper PMC8522775, “Population Pharmacokinetics of Rezafungin in Patients with Fungal Infections” (Antimicrobial Agents and Chemotherapy, 2021)
